In patent publication US20250092065A1, “2-(INDAZOL-5-YL)-6-(PIPERIDIN-4-YL)-1,7-NAPHTHYRIDINE DERIVATIVES AND RELATED COMPOUNDS AS MODULATORS FOR SPLICING NUCLEIC ACIDS AND FOR THE TREATMENT OF PROLIFERATIVE DISEASES” (REMIX THERAPEUTICS INC., priority 2022, published 2025):
pIC50: −log10 of the molar value. Structures can show the parent of a compound that is named as a salt. Where two headings read alike, the source gives them in different places.

What was measured:
Format in all cases: cell-based, human
HTT mRNA = assay: RT-qPCR splicing assay, HTT mRNA canonical (CJ) and alternative (AJ) junction; settings: Homo sapiens
Method in brief: (§1)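 A673 or K562 cells treated 24 h at 37 °C with 11-point 3-fold dilutions (top final 10 uM, DMSO ≤0.25%). Lysates analysed by one-step RT-qPCR for canonical (CJ) and alternative-exon (AJ) junctions, normalized to GAPDH, GUSB or PPIA. ΔΔCt vs DMSO, RQ = 2^(−ΔΔCt), expressed as percentage response.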

MYB mRNA = assay: RT-qPCR splicing assay, MYB mRNA canonical (CJ) and alternative (AJ) junction; settings: Homo sapiens
Method in brief: as §1

SMN2 mRNA = assay: RT-qPCR splicing assay, SMN2 mRNA; settings: Homo sapiens, canonical junction qPCR panel, Table 4; read-out: SMN2 IC50 (decrease in CJ mRNA levels)
Method in brief: as §1

MYB = assay: HiBiT protein abundance assay, MYB (K562 HiBiT knock-in); settings: HiBiT knock-in K562 cells, 24 hours, top dose 10 μM
Method in brief: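 Steps: seed HiBiT knock-in K562 cells; add compound in 10-point 3-fold series from 10 μM final; incubate 24 h, 37 °C; add lytic HiBiT reagent, shake 5 min, wait 10 min; read luminescence. Normalize to parental K562 and DMSO controls, fit 4PL, take IC50.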

[1] = canonical junction qPCR panel, Table 4, read-out: HTT IC50 (decrease in CJ mRNA levels)
[2] = canonical junction qPCR panel, Table 4, read-out: MYB IC50 (decrease in CJ mRNA levels)
[3] = RT-qPCR, HTT alternative junction mRNA increase, read-out: HTT AJ (increase in alternative junction mRNA, AC50)
[4] = RT-qPCR, HTT canonical junction mRNA decrease, read-out: HTT CJ (decrease in canonical junction mRNA, IC50)
[5] = RT-qPCR, MYB alternative junction mRNA increase, read-out: MYB AJ (increase in alternative junction mRNA, AC50)
[6] = RT-qPCR, MYB canonical junction mRNA decrease, read-out: MYB CJ (decrease in canonical junction mRNA, IC50)

Compound: Cn1cc2cc(-c3ccc4nc(N5CC[C@H](NCC6CC6)C5)ccc4n3)c(O)cc2n1 [Compound 194]
- AC50 (HTT mRNA; HTT alternative junction mRNA, RT-qPCR, read-out: HTT AJ (increase in AJ mRNA, AC50)): < 100 nM
- pIC50 (HTT mRNA; HTT canonical junction mRNA, RT-qPCR, read-out: HTT CJ (decrease in CJ mRNA levels, IC50)): > 7.00
- pIC50 (HTT mRNA; [1]): > 7.00
- AC50 (MYB mRNA; MYB alternative junction mRNA, RT-qPCR, read-out: MYB AJ (increase in AJ mRNA, AC50)): < 100 nM
- pIC50 (MYB mRNA; MYB canonical junction mRNA, RT-qPCR, read-out: MYB CJ (decrease in CJ mRNA levels, IC50)): > 7.00
- pIC50 (MYB mRNA; [2]): > 7.00
- pIC50 (SMN2 mRNA): > 7.00
- pIC50 (MYB): > 7.00

Compound: CN(C)C1CCN(c2ccc3nc(-c4cc5cn(C)nc5c(F)c4O)ncc3c2)CC1 [Compound 757, 5-{6-[4-(dimethylamino)piperidin-1-yl]quinazolin-2-yl}-7-fluoro-2-methylindazol-6-ol]
- AC50 (HTT mRNA; [3]): 1000 to 10000 nM
- pIC50 (HTT mRNA; [4]): 5.00 to 6.00
- pIC50 (HTT mRNA; [1]): 5.00 to 6.00
- AC50 (MYB mRNA; [5]): 100 to 1000 nM
- pIC50 (MYB mRNA; [6]): > 7.00
- pIC50 (MYB mRNA; [2]): > 7.00
- pIC50 (SMN2 mRNA): > 7.00
- pIC50 (MYB): > 7.00

Compound: C[C@@H]1CN(c2cc(F)c3nc(-c4cc(F)c5nn(C)cc5c4)ccc3c2)C[C@H](C)N1 [Compound 758, 6-[(3R,5S)-3,5-dimethylpiperazin-1-yl]-8-fluoro-2-(7-fluoro-2-methylindazol-5-yl)quinoline]
- AC50 (HTT mRNA; [3]): 1000 to 10000 nM
- pIC50 (HTT mRNA; [4]): 6.00 to 7.00
- pIC50 (HTT mRNA; [1]): 6.00 to 7.00
- AC50 (MYB mRNA; [5]): 100 to 1000 nM
- pIC50 (MYB mRNA; [6]): 6.00 to 7.00
- pIC50 (MYB mRNA; [2]): 6.00 to 7.00
- pIC50 (SMN2 mRNA): > 7.00
- pIC50 (MYB): 6.00 to 7.00

Compound: C[C@@H]1CN(c2cc(F)c3nc(-c4cc5cn(C)nc5c(F)c4O)ccc3c2)C[C@H](C)N1 [Compound 763, 5-{6-[(3R,5S)-3,5-dimethylpiperazin-1-yl]-8-fluoroquinolin-2-yl}-7-fluoro-2-methylindazol-6-ol hydrochloride]
- AC50 (HTT mRNA; [3]): 100 to 1000 nM
- pIC50 (HTT mRNA; [4]): > 7.00
- pIC50 (HTT mRNA; [1]): > 7.00
- AC50 (MYB mRNA; [5]): < 100 nM
- pIC50 (MYB mRNA; [6]): > 7.00
- pIC50 (MYB mRNA; [2]): > 7.00
- pIC50 (SMN2 mRNA): > 7.00
- pIC50 (MYB): > 7.00

Compound: C[C@@H]1CN(c2cc(F)c3nc(-c4cc5cn(C)nc5cc4O)ccc3c2)C[C@H](C)N1 [Compound 768, 5-{6-[(3R,5S)-3,5-dimethylpiperazin-1-yl]-8-fluoroquinolin-2-yl}-2-methylindazol-6-ol hydrochloride]
- AC50 (HTT mRNA; [3]): 1000 to 10000 nM
- pIC50 (HTT mRNA; [4]): 5.00 to 6.00
- pIC50 (HTT mRNA; [1]): 5.00 to 6.00
- AC50 (MYB mRNA; [5]): 100 to 1000 nM
- pIC50 (MYB mRNA; [6]): 6.00 to 7.00
- pIC50 (MYB mRNA; [2]): 6.00 to 7.00
- pIC50 (SMN2 mRNA): > 7.00
- pIC50 (MYB): > 7.00

Compound: Cc1cn2cc(-c3ncc4cc(N5C[C@@H](C)N[C@@H](C)C5)ccc4n3)cc(F)c2n1 [Compound 773, 6-[(3R,5S)-3,5-dimethylpiperazin-1-yl]-2-{8-fluoro-2-methylimidazo[1,2-a]pyridin-6-yl}quinazoline]
- AC50 (HTT mRNA; [3]): 1000 to 10000 nM
- pIC50 (HTT mRNA; [4]): 5.00 to 6.00
- pIC50 (HTT mRNA; [1]): 5.00 to 6.00
- AC50 (MYB mRNA; [5]): < 100 nM
- pIC50 (MYB mRNA; [6]): > 7.00
- pIC50 (MYB mRNA; [2]): > 7.00
- pIC50 (SMN2 mRNA): > 7.00
- pIC50 (MYB): > 7.00

Compound: Cc1cn2cc(-c3nc(C(=O)NC4CCC4)c4cc(N5C[C@@H](C)N[C@@H](C)C5)ccc4n3)cc(F)c2n1 [Compound 779, N-cyclobutyl-6-[(3R,5S)-3,5-dimethylpiperazin-1-yl]-2-{8-fluoro-2-methylimidazo[1,2-a]pyridin-6-yl}quinazoline-4-carboxamide]
- AC50 (HTT mRNA; [3]): 1000 to 10000 nM
- pIC50 (HTT mRNA; [4]): 5.00 to 6.00
- pIC50 (HTT mRNA; [1]): 5.00 to 6.00
- AC50 (MYB mRNA; [5]): < 100 nM
- pIC50 (MYB mRNA; [6]): > 7.00
- pIC50 (MYB mRNA; [2]): > 7.00
- pIC50 (SMN2 mRNA): > 7.00
- pIC50 (MYB): > 7.00

Compound: Cc1c(O)c(-c2nc(C(N)=O)c3cc(N4C[C@H](C)N[C@@H](C)C4)ccc3n2)cc2cn(C)nc12 [Compound 796]
- AC50 (HTT mRNA; [3]): 100 to 1000 nM
- pIC50 (HTT mRNA; [4]): 6.00 to 7.00
- pIC50 (HTT mRNA; [1]): 6.00 to 7.00
- AC50 (MYB mRNA; [5]): < 100 nM
- pIC50 (MYB mRNA; [6]): > 7.00
- pIC50 (MYB mRNA; [2]): > 7.00
- pIC50 (MYB): > 7.00

Compound: C[C@H]1CN(c2ccc3nc(-c4cc5cn(C)nc5cc4O)nc(C(N)=O)c3c2)C[C@H](C)N1 [Compound 797]
- AC50 (HTT mRNA; [3]): 100 to 1000 nM
- pIC50 (HTT mRNA; [4]): 5.00 to 6.00
- pIC50 (HTT mRNA; [1]): 5.00 to 6.00
- AC50 (MYB mRNA; [5]): < 100 nM
- pIC50 (MYB mRNA; [6]): > 7.00
- pIC50 (MYB mRNA; [2]): > 7.00
- pIC50 (MYB): > 7.00

Compound: Cc1cn2cc(-c3ncc4cc(N5C[C@H](C)N[C@@H](C)C5)ccc4n3)cc(F)c2n1 [Compound 803, 6-[(3S,5S)-3,5-dimethylpiperazin-1-yl]-2-{8-fluoro-2-methylimidazo[1,2-a]pyridin-6-yl}quinazoline]
- AC50 (HTT mRNA; [3]): 100 to 1000 nM
- pIC50 (HTT mRNA; [4]): 6.00 to 7.00
- pIC50 (HTT mRNA; [1]): 6.00 to 7.00
- AC50 (MYB mRNA; [5]): < 100 nM
- pIC50 (MYB mRNA; [6]): > 7.00
- pIC50 (MYB mRNA; [2]): > 7.00
- pIC50 (SMN2 mRNA): > 7.00
- pIC50 (MYB): > 7.00

Compound: Cc1c(O)c(-c2ccc3cc(N4CCNC5(CC5)C4)cc(F)c3n2)cc2cn(C)nc12 [Compound 805, 5-(6-{4,7-diazaspiro[2.5]octan-7-yl}-8-fluoroquinolin-2-yl)-2,7-dimethylindazol-6-ol]
- AC50 (HTT mRNA; [3]): 100 to 1000 nM
- pIC50 (HTT mRNA; [4]): > 7.00
- pIC50 (HTT mRNA; [1]): > 7.00
- AC50 (MYB mRNA; [5]): < 100 nM
- pIC50 (MYB mRNA; [6]): > 7.00
- pIC50 (MYB mRNA; [2]): > 7.00
- pIC50 (MYB): > 7.00
